Assay results from ChEMBL document CHEMBL3580594, “Synthesis and biological evaluation of 4-substituted fluoronucleoside analogs for the treatment of hepatitis B virus infection” (J Med Chem, 2015).
Values belong to the compound of their own block, whether it stands above or below them.

What was measured:
[1] = Cytotoxicity against human HepG2.2.15 cells by MTT assay; assay type: cell-based, HepG2 2.2.15
[2] = system: Hepatitis B virus; assay: Antiviral activity against Hepatitis B virus in HepG2.CW cells assessed as inhibition of viral DNA replication at 1 uM after 9 days by real-time FQ-PCR analysis; assay type: functional; conditions: 216 h
[3] = system: Rattus norvegicus; assay: In vivo drug formation in rat urine sample treated with 1-((2R,3S,4R,5R)-5-Azido-3-fluoro-4-hydroxy-5-(hydroxymethyl)tetrahydrofuran-2-yl)-4-(cyclopropylamino)-pyrimidin-2(1H)-one by NMR spectrum; assay type: ADME, organism-based
[4] = system: Hepatitis B virus; assay: Antiviral activity against wild type Hepatitis B virus; assay type: functional, organism-based
[5] = system: Rattus norvegicus; assay: In vivo drug formation in rat urine sample treated with 1-((2R,3S,4R,5R)-5-Azido-3-fluoro-4-hydroxy-5-(hydroxymethyl)tetrahydrofuran-2-yl)-4-(cyclopropylamino)-pyrimidin-2(1H)-one by LC-MS/MS analysis; assay type: ADME, organism-based
[6] = system: Hepatitis B virus; assay: Antiviral activity against lamivudine-resistant Hepatitis B virus; assay type: functional, organism-based
[7] = system: Duck hepatitis B virus; assay: Antiviral activity against duck Hepatitis B virus infected in duck assessed as inhibition of viral DNA replication in liver at 20 mg/kg/day, po treatment initiated at day 10 after infection relative to control; assay type: functional; conditions: 240 h
[8] = system: Duck hepatitis B virus; assay: Antiviral activity against duck Hepatitis B virus infected in duck assessed as inhibition of viral DNA replication in serum at 20 mg/kg/day, po treatment initiated at day 5 after infection relative to control; assay type: functional; conditions: 120 h
[9] = system: Duck hepatitis B virus; assay: Antiviral activity against duck Hepatitis B virus infected in duck assessed as inhibition of viral DNA replication in serum at 20 mg/kg/day, po measured after 3 days of treatment withdrawal; assay type: functional; conditions: 72 h
[10] = system: Duck hepatitis B virus; assay: Antiviral activity against duck Hepatitis B virus infected in duck assessed as inhibition of viral DNA replication in liver at 20 mg/kg/day, po measured after 3 days of treatment withdrawal; assay type: functional; conditions: 72 h
[11] = system: Duck hepatitis B virus; assay: Antiviral activity against duck Hepatitis B virus infected in duck assessed as inhibition of viral DNA replication in serum at 20 mg/kg/day, po treatment initiated at day 10 after infection relative to control; assay type: functional; conditions: 240 h
[12] = Cmax in Sprague-Dawley rat at 32 mg/kg, po; assay type: ADME, organism-based; set-up: dose 32 mg/kg, route oral; conditions: in vivo
[13] = Tmax in Sprague-Dawley rat at 32 mg/kg, po; assay type: ADME, organism-based; conditions: in vivo
[14] = Oral bioavailability in Sprague-Dawley rat at 32 mg/kg; assay type: ADME, organism-based; conditions: in vivo
[15] = system: Duck hepatitis B virus; assay: Antiviral activity against duck Hepatitis B virus infected in duck assessed as inhibition of viral DNA replication in liver at 20 mg/kg/day, po treatment initiated at day 5 after infection relative to control; assay type: functional; conditions: 120 h
[16] = system: Rattus norvegicus; assay: In vivo drug formation in rat plasma sample treated with 1-((2R,3S,4R,5R)-5-Azido-3-fluoro-4-hydroxy-5-(hydroxymethyl)tetrahydrofuran-2-yl)-4-(cyclopropylamino)-pyrimidin-2(1H)-one by LC-MS/MS analysis; assay type: ADME, organism-based
[17] = system: Rattus norvegicus; assay: In vivo drug formation in rat bile sample treated with 1-((2R,3S,4R,5R)-5-Azido-3-fluoro-4-hydroxy-5-(hydroxymethyl)tetrahydrofuran-2-yl)-4-(cyclopropylamino)-pyrimidin-2(1H)-one by LC-MS/MS analysis; assay type: ADME, organism-based
[18] = system: Hepatitis B virus; assay: Antiviral activity against Hepatitis B virus in HepG2.2.15 cells assessed as inhibition of intracellular viral DNA replication at 0.1 uM after 9 days by real-time FQ-PCR analysis; assay type: functional; conditions: HepG2 2.2.15, 216 h
[19] = system: Hepatitis B virus; assay: Antiviral activity against Hepatitis B virus in HepG2.2.15 cells assessed as inhibition of intracellular viral DNA replication at 0.1 uM after 6 days by real-time FQ-PCR analysis; assay type: functional; conditions: HepG2 2.2.15, 144 h
[20] = system: Hepatitis B virus; assay: Antiviral activity against Hepatitis B virus in HepG2.2.15 cells assessed as inhibition of extracellular viral DNA replication at 0.1 uM after 3 days by real-time FQ-PCR analysis; assay type: functional; conditions: HepG2 2.2.15, 72 h
[21] = system: Hepatitis B virus; assay: Antiviral activity against Hepatitis B virus in HepG2.2.15 cells assessed as inhibition of extracellular viral DNA replication at 0.1 uM after 6 days by real-time FQ-PCR analysis; assay type: functional; conditions: HepG2 2.2.15, 144 h
[22] = system: Hepatitis B virus; assay: Antiviral activity against Hepatitis B virus in HepG2.2.15 cells assessed as inhibition of intracellular viral DNA replication at 0.1 uM after 3 days by real-time FQ-PCR analysis; assay type: functional; conditions: HepG2 2.2.15, 72 h
[23] = system: Hepatitis B virus; assay: Antiviral activity against Hepatitis B virus in HepG2.2.15 cells assessed as inhibition of extracellular viral DNA replication at 0.1 uM after 9 days by real-time FQ-PCR analysis; assay type: functional; conditions: HepG2 2.2.15, 216 h

Structure (SMILES): CCC(C)Nc1ccn([C@@H]2O[C@@](CO)(N=[N+]=[N-])[C@@H](O)[C@@H]2F)c(=O)n1 (stereo not given in full)
- CC50 [1]: > 125 µM
- inhibition at 1 µM [2]: 61.7%

Structure (SMILES): CCN(CC)c1ccn([C@@H]2O[C@@](CO)(N=[N+]=[N-])[C@@H](O)[C@@H]2F)c(=O)n1
- CC50 [1]: > 125 µM
- inhibition at 1 µM [2]: 7.1%

Structure (SMILES): [N-]=[N+]=N[C@]1(CO)O[C@@H](n2ccc(N)nc2=O)[C@@H](F)[C@@H]1O [RO-0622]
- Drug metabolism [3]: metabolite_detected
- EC50 [4]: 0.12 µM
- Drug metabolism [5]: metabolite_detected
- EC50 [6]: 0.27 µM

Structure (SMILES): [N-]=[N+]=N[C@]1(CO)O[C@@H](n2ccc(=O)[nH]c2=O)[C@@H](F)[C@@H]1O
- CC50 [1]: > 125 µM
- inhibition at 1 µM [2]: 75.5%

Structure (SMILES): CNc1ccn([C@@H]2O[C@@](CO)(N=[N+]=[N-])[C@@H](O)[C@@H]2F)c(=O)n1
- CC50 [1]: > 125 µM
- inhibition at 1 µM [2]: 81.1%

Structure (SMILES): [N-]=[N+]=N[C@]1(CO)O[C@@H](n2ccc(NC3CCCC3)nc2=O)[C@@H](F)[C@@H]1O
- CC50 [1]: > 125 µM
- inhibition at 1 µM [2]: 37.3%

- Drug metabolism [5]: metabolite_detected
Structure (SMILES): [N-]=[N+]=N[C@]1(CO)O[C@@H](n2ccc(NC3C(O)C3O)nc2=O)[C@@H](F)[C@@H]1O (stereo not given in full)

- Cmax [12]: 274 ng/mL
- Tmax [13]: 5 h
- bioavailability [14]: 18.7%
Structure (SMILES): Nc1ccn([C@@H]2CS[C@H](CO)O2)c(=O)n1 [LAMIVUDINE]
- inhibition in vivo at 20 mg/kg/day [7]: 84%
- inhibition in vivo at 20 mg/kg/day [8]: 88.6%
- inhibition in vivo at 20 mg/kg/day [9]: 79.3%
- inhibition in vivo at 20 mg/kg/day [10]: 76.2%
- inhibition in vivo at 20 mg/kg/day [11]: 82.2%
- inhibition in vivo at 20 mg/kg/day [15]: 52.7%

- Drug metabolism [16]: metabolite_detected
- Drug metabolism [17]: metabolite_detected
- Drug metabolism [5]: metabolite_detected
Structure (SMILES): [N-]=[N+]=N[C@]1(CO)O[C@@H](n2ccc(NC3CC3O)nc2=O)[C@@H](F)[C@@H]1O (stereo not given in full)

Structure (SMILES): CCNc1ccn([C@@H]2O[C@@](CO)(N=[N+]=[N-])[C@@H](O)[C@@H]2F)c(=O)n1
- CC50 [1]: > 125 µM
- inhibition at 1 µM [2]: 78%

Structure (SMILES): [N-]=[N+]=N[C@]1(CO)O[C@@H](n2ccc(NC3CCCCC3)nc2=O)[C@@H](F)[C@@H]1O
- CC50 [1]: > 125 µM
- inhibition at 1 µM [2]: 23.6%

Structure (SMILES): C=C1[C@H](CO)[C@@H](O)C[C@@H]1n1cnc2c(=O)[nH]c(N)nc21
- CC50 [1]: 30 µM
- inhibition at 1 µM [2]: 95.7%
- inhibition at 0.1 µM [18]: 57.6%
- inhibition at 0.1 µM [19]: 40.6%
- inhibition at 0.1 µM [20]: 38.2%
- inhibition at 0.1 µM [21]: 47.8%
- inhibition at 0.1 µM [22]: 37.8%
- inhibition at 0.1 µM [23]: 78.6%

Structure (SMILES): [N-]=[N+]=N[C@]1(CO)O[C@@H](n2ccc(N3CCCC3)nc2=O)[C@@H](F)[C@@H]1O
- CC50 [1]: > 125 µM
- inhibition at 1 µM [2]: 33.1%

Structure (SMILES): CC(C)Nc1ccn([C@@H]2O[C@@](CO)(N=[N+]=[N-])[C@@H](O)[C@@H]2F)c(=O)n1
- CC50 [1]: > 125 µM
- inhibition at 1 µM [2]: 43.7%

Structure (SMILES): CN(C)c1ccn([C@@H]2O[C@@](CO)(N=[N+]=[N-])[C@@H](O)[C@@H]2F)c(=O)n1
- CC50 [1]: > 125 µM
- inhibition at 1 µM [2]: 43.6%
